What was measured:
Assay type in all cases: in vivo
[1] = tested on: lambsquarters (Chenopodium album, CHEAL); assay: Pre-emerge test, greenhouse herbicide activity screening; conditions: pre-emerge, 14 days after application, rating scale 0-100
Procedure, shortened: (§1)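 Visual ratings on a 0-100 scale (0 no damage, 100 all plants dead) were taken at 14 days after treatment. Rates of 15-1000 g ai/ha in acetone, 187 l/ha, were sprayed onto soil one day after planting (pre-emerge) or onto 2-3 leaf plants with 0.25% v/v surfactant (post-emerge).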

[2] = tested on: green foxtail (Setaria viridis, SETVI); assay: as above; conditions: pre-emerge, 14 days after application, rating scale 0-100
Procedure, shortened: as §1

[3] = tested on: large crabgrass (Digitaria sanguinalis, DIGSA); assay: as above; conditions: pre-emerge, 14 days after application, rating scale 0-100
Procedure, shortened: as §1

[4] = tested on: sicklepod (Cassia obtusifolia, CASOB); assay: as above; conditions: pre-emerge, 14 days after application, rating scale 0-100
Procedure, shortened: as §1

[5] = tested on: barnyardgrass (Echinochloa crus-galli, ECHCG); assay: as above; conditions: pre-emerge, 14 days after application, rating scale 0-100
Procedure, shortened: as §1

[6] = tested on: ivyleaf morningglory (Ipomoea hederacea, IPOHE); assay: as above; conditions: pre-emerge, 14 days after application, rating scale 0-100
Procedure, shortened: as §1

[7] = tested on: velvetleaf (Abutilon theophrasti, ABUTH); assay: as above; conditions: pre-emerge, 14 days after application, rating scale 0-100
Procedure, shortened: as §1

[8] = tested on: johnsongrass (Sorghum halepense, SORHA); assay: as above; conditions: pre-emerge, 14 days after application, rating scale 0-100
Procedure, shortened: as §1

[9] = tested on: lambsquarters (Chenopodium album, CHEAL); assay: Post-emerge test, greenhouse herbicide activity screening; conditions: post-emerge, 14 days after application, rating scale 0-100
Procedure, shortened: (§2)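 Compounds in acetone were track-sprayed at 15–1000 g ai/ha: pre-emergence onto soil sown the previous day, then top-watered to incorporate and later bottom-watered; post-emergence onto 2–3 leaf plants with 0.25% v/v surfactant, bottom-watered only. Ratings on a 0–100 phytotoxicity scale were taken at day 14.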

[10] = tested on: green foxtail (Setaria viridis, SETVI); assay: as above; conditions: post-emerge, 14 days after application, rating scale 0-100
Procedure, shortened: as §2

[11] = tested on: large crabgrass (Digitaria sanguinalis, DIGSA); assay: as above; conditions: post-emerge, 14 days after application, rating scale 0-100
Procedure, shortened: as §2

[12] = tested on: sicklepod (Cassia obtusifolia, CASOB); assay: as above; conditions: post-emerge, 14 days after application, rating scale 0-100
Procedure, shortened: as §2

[13] = tested on: barnyardgrass (Echinochloa crus-galli, ECHCG); assay: as above; conditions: post-emerge, 14 days after application, rating scale 0-100
Procedure, shortened: as §2

[14] = tested on: ivyleaf morningglory (Ipomoea hederacea, IPOHE); assay: as above; conditions: post-emerge, 14 days after application, rating scale 0-100
Procedure, shortened: as §2

[15] = tested on: velvetleaf (Abutilon theophrasti, ABUTH); assay: as above; conditions: post-emerge, 14 days after application, rating scale 0-100
Procedure, shortened: as §2

[16] = tested on: redroot pigweed (Amaranthus retroflexus, AMARE); assay: as above; conditions: post-emerge, 14 days after application
Procedure, shortened: as §2

[17] = tested on: johnsongrass (Sorghum halepense, SORHA); assay: as above; conditions: post-emerge, 14 days after application, rating scale 0-100
Procedure, shortened: as §2

[18] = tested on: field corn (Zea mays L., var. Dekalb 535, CORN); assay: Post-emerge test, crop safety; conditions: post-emerge, 14 days after application, rating scale 0-100
Procedure, shortened: as §1

[19] = tested on: upland rice (Oryza sp., var. Tebonnet, RICE); assay: Post-emerge test, crop safety; conditions: post-emerge, 14 days after application, rating scale 0-100
Procedure, shortened: as §1

[20] = tested on: redroot pigweed (Amaranthus retroflexus, AMARE); assay: Pre-emerge test, greenhouse herbicide activity screening; conditions: pre-emerge, 14 days after application, rating scale 0-100
Procedure, shortened: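 Compounds in acetone were track-sprayed at 187 l/ha, 15–1000 g ai/ha, onto sandy loam pots. Pre-emerge seeds were sown one day before spraying, with surface watering afterwards. Post-emerge plants were at the 2–3 leaf stage and sprayed with 0.25% v/v non-ionic surfactant. Injury was rated 0–100 at 14 days.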

[21] = tested on: field corn (Zea mays L., var. Dekalb 535, CORN); assay: Pre-emerge test, crop safety; conditions: pre-emerge, 14 days after application, rating scale 0-100
Procedure, shortened: (§3)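 Compounds in acetone were track-sprayed at 15-1000 g ai/ha (187 l/ha) on sandy loam pots: pre-emerge one day after seeding, post-emerge at 2-3 leaf stage with 0.25% v/v non-ionic surfactant. Phytotoxicity was rated 14 days later on a 0 (no damage) to 100 (complete death) scale.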

[22] = tested on: upland rice (Oryza sp., var. Tebonnet, RICE); assay: Pre-emerge test, crop safety; conditions: pre-emerge, 14 days after application, rating scale 0-100
Procedure, shortened: as §3

COc1c(Cl)cc(F)c(-n2c(=O)cc(C(F)(F)F)n(C)c2=O)c1NN=C1CCc2ccccc2C1 [15-18]
phytotoxicity rating CHEAL ([1]; 63 g ai/ha): 100
phytotoxicity rating CHEAL ([1]; 250 g ai/ha): 100
phytotoxicity rating SETVI ([2]; 63 g ai/ha): 95
phytotoxicity rating SETVI ([2]; 250 g ai/ha): 100
phytotoxicity rating DIGSA ([3]; 63 g ai/ha): 100
phytotoxicity rating DIGSA ([3]; 250 g ai/ha): 100
phytotoxicity rating CASOB ([4]; 63 g ai/ha): 100
phytotoxicity rating CASOB ([4]; 250 g ai/ha): 100
phytotoxicity rating ECHCG ([5]; 63 g ai/ha): 75
phytotoxicity rating ECHCG ([5]; 250 g ai/ha): 100
phytotoxicity rating IPOHE ([6]; 63 g ai/ha): 90
phytotoxicity rating IPOHE ([6]; 250 g ai/ha): 100
phytotoxicity rating ABUTH ([7]; 63 g ai/ha): 100
phytotoxicity rating ABUTH ([7]; 250 g ai/ha): 100
phytotoxicity rating SORHA ([8]; 63 g ai/ha): 75
phytotoxicity rating SORHA ([8]; 250 g ai/ha): 100
Post-emerge Herbicidal Activity CHEAL (phytotoxicity rating) ([9]; 63 g ai/ha): 100
Post-emerge Herbicidal Activity CHEAL (phytotoxicity rating) ([9]; 250 g ai/ha): 100
Post-emerge Herbicidal Activity SETVI (phytotoxicity rating) ([10]; 63 g ai/ha): 20
Post-emerge Herbicidal Activity SETVI (phytotoxicity rating) ([10]; 250 g ai/ha): 80
Post-emerge Herbicidal Activity DIGSA (phytotoxicity rating) ([11]; 63 g ai/ha): 10
Post-emerge Herbicidal Activity DIGSA (phytotoxicity rating) ([11]; 250 g ai/ha): 100
Post-emerge Herbicidal Activity CASOB (phytotoxicity rating) ([12]; 63 g ai/ha): 40
Post-emerge Herbicidal Activity CASOB (phytotoxicity rating) ([12]; 250 g ai/ha): 100
Post-emerge Herbicidal Activity ECHCG (phytotoxicity rating) ([13]; 63 g ai/ha): 10
Post-emerge Herbicidal Activity ECHCG (phytotoxicity rating) ([13]; 250 g ai/ha): 95
Post-emerge Herbicidal Activity IPOHE (phytotoxicity rating) ([14]; 63 g ai/ha): 90
Post-emerge Herbicidal Activity IPOHE (phytotoxicity rating) ([14]; 250 g ai/ha): 100
Post-emerge Herbicidal Activity ABUTH (phytotoxicity rating) ([15]; 63 g ai/ha): 100
Post-emerge Herbicidal Activity ABUTH (phytotoxicity rating) ([15]; 250 g ai/ha): 100
Post-emerge Herbicidal Activity AMARE (phytotoxicity rating) ([16]; 63 g ai/ha, rating scale 0-100 (0 no damage, 100 complete death)): 100
Post-emerge Herbicidal Activity AMARE (phytotoxicity rating) ([16]; 250 g ai/ha, rating scale 0-100): 100
Post-emerge Herbicidal Activity SORHA (phytotoxicity rating) ([17]; 63 g ai/ha): 0
Post-emerge Herbicidal Activity SORHA (phytotoxicity rating) ([17]; 250 g ai/ha): 99
Post-emerge Herbicidal Activity CORN (crop damage rating) ([18]; 63 g ai/ha): 20
Post-emerge Herbicidal Activity CORN (crop damage rating) ([18]; 250 g ai/ha): 80
Post-emerge Herbicidal Activity RICE (crop damage rating) ([19]; 63 g ai/ha): 30
Post-emerge Herbicidal Activity RICE (crop damage rating) ([19]; 250 g ai/ha): 85
phytotoxicity rating AMARE ([20]; 63 g ai/ha): 100
phytotoxicity rating AMARE ([20]; 250 g ai/ha): 100
phytotoxicity rating CORN ([21]; 63 g ai/ha): 80
phytotoxicity rating CORN ([21]; 250 g ai/ha): 95
phytotoxicity rating RICE ([22]; 63 g ai/ha): 90
phytotoxicity rating RICE ([22]; 250 g ai/ha): 99
